Reference: article PMC7391726, “Fatty acid mimetic PBI-4547 restores metabolic homeostasis via GPR84 in mice with non-alcoholic fatty liver disease” (Scientific Reports, 2020)

How the values were obtained:
[1] = molecular target: T1, GPR120 (Homo sapiens, UniProt Q5NUL3); assay: BRET β-arrestin-2 recruitment to GPR120-GFP10 in HEK293 cells; assay type: cell-based; details: Rluc8-β-arrestin-2 / GPR120-GFP10
T1 construct: expressed in transfected cells; host or cells: HEK293
T1 sequence (Q5NUL3 1-361): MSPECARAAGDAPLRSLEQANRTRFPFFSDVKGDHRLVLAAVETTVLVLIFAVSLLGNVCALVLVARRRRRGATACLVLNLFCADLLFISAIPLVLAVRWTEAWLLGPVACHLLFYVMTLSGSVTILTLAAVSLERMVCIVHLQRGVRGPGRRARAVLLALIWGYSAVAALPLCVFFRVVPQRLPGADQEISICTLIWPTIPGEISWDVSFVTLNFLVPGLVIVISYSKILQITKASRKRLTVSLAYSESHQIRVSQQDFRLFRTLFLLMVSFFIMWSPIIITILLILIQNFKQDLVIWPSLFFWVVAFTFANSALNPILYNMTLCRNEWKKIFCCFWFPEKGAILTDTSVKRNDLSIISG
Description: Figure 1 PBI-4547 binding and activity on GPR84, GPR40, GPR120, and PPAR receptors. (A) Chemical structure of PBI-4547. (B) Gi pathway activation was monitored in HEK293 cells transfected with GPR84 and the Gαi2 activation biosensor. Cells were co-treated with […] sodium decanoate and increasing concentrations of PBI-4547, and BRET variation compared with vehicle was measured. (C) β-arrestin 2 recruitment to activated GPR120 receptor was monitored in HEK293 cells transfected with RLuc8-β-arrestin 2 and GPR120-GFP10. (D) Cells transfected with GPR40 and Gαq or Gαi2 activation biosensor were exposed to increasing concentrations of PBI-4547 or to 500 µM of sodium decanoate, and BRET variation compared with vehicle was measured. Cells were exposed to increasing concentrations of PBI-4547 or to 100 µM of GW9508, and BRET variation compared with vehicle was measured. […] Data in (B–D) are expressed as means ± SEM of 4–5 experiments; data in (E,F) are from a representative experiment from a total of 3 to 4 independent experiments. […]
BRET measurements in transiently transfected HEK293 cells were performed as previously described. Ligands were incubated with cells at room temperature for 10 min (G protein biosensors) or 25 min (β-arrestin/GPR120) before collecting BRET[2] readings between Rluc8 and GFP10.

[2] = tested on: CCl4 mouse; assay: Carbon tetrachloride (CCl4)-induced liver fibrosis; assay type: in vivo
Description: Since fibrosis contributes directly to the progression from NAFLD to NASH, we next evaluated the effect of PBI-4547 pro-fibrotic gene expression. […] Pro-inflammatory genes were not modulated by treatment with PBI-4547. […] As liver fibrosis was relatively mild in HFD-fed mice, we performed separate studies to evaluate the antifibrotic effect of PBI-4547, in rodent models of carbon tetrachloride (CCl4)- and bile duct ligation (BDL)-induced liver fibrosis.

EC50 [1]: 48 µM
SMILES: CCCCCc1cc(CCCCC)cc(CC(=O)[O-])c1.[Na+] [PBI-4547, 2-[3,5-dipentylphenyl]acetate sodium salt]
liver collagen deposition [2]: significantly decreased
